This passage reports DC50 and Dmax results from patent US20260317324A1, “BIFUNCTIONAL COMPOUNDS FOR DEGRADING BRAF VIA UBIQUITIN PROTEOSOME PATHWAY” (Nurix Therapeutics, Inc., priority 2023, published 2026).

Assay type in all cases: cell-based
One test addresses T1, BRAF D594G (Homo sapiens, UniProt P15056, D594G).
T1 construct: Horizon Discovery (HCT-116 BRAF−/− cells); host or cells: HCT-116 BRAF−/− cells, clone 63, lentiviral transduction
Briefly: BRAF HiBiT degradation assay, C-terminal HiBiT-tagged BRAF D594G overexpressed in HCT-116 BRAF−/− cells (clone 63), Nano-Glo HiBiT Lytic assay. The gist of the method: (§1)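 Degradation assay in HCT-116 BRAF−/− cells carrying lentiviral HiBiT-tagged mutant BRAF. The readout is % protein remaining across 1 μM to 0.01 nM compound, and DC50 marks 50% remaining.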

The target in the next test is T2, BRAF G466V (Homo sapiens, UniProt P15056, G466V).
T2 construct: Horizon Discovery (HCT-116 BRAF−/− cells); host or cells: HCT-116 BRAF−/− cells, clone 8, lentiviral transduction
T2 sequence (P15056 whole entry G466V): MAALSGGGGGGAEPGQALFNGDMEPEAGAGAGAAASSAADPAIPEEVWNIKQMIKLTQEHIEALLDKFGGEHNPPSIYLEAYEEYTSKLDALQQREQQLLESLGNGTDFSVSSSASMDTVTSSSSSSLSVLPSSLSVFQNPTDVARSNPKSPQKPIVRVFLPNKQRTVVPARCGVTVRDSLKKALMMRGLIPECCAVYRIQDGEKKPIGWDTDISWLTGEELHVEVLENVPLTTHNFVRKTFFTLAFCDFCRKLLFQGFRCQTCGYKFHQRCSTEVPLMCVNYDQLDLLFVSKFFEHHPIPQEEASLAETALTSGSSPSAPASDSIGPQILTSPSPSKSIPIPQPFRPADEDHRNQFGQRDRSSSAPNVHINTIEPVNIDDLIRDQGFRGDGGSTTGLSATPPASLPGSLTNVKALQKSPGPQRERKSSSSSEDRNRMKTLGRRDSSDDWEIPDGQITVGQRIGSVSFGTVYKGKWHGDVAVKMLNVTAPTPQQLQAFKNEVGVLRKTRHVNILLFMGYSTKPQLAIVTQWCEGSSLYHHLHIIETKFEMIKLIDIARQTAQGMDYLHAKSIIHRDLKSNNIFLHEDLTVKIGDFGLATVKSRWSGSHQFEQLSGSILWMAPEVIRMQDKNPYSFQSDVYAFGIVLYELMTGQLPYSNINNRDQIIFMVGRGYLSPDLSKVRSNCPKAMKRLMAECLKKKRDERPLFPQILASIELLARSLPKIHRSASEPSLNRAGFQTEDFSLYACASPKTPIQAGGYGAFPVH
Briefly: BRAF HiBiT degradation assay, C-terminal HiBiT-tagged BRAF G466V overexpressed in HCT-116 BRAF−/− cells (clone 8), Nano-Glo HiBiT Lytic assay. The gist of the method:
as §1

A further test deals with T3, BRAF G469A (Homo sapiens, UniProt P15056, G469A).
T3 construct: Horizon Discovery (HCT-116 BRAF−/− cells); host or cells: HCT-116 BRAF−/− cells, clone 34, lentiviral transduction
T3 sequence (P15056 whole entry G469A): as the sequence (P15056 whole entry G466V) above, with V466G, G469A counted along it
Briefly: BRAF HiBiT degradation assay, C-terminal HiBiT-tagged BRAF G469A overexpressed in HCT-116 BRAF−/− cells (clone 34), Nano-Glo HiBiT Lytic assay. The gist of the method: as §1

A further test addresses T4, BRAF V600E (Homo sapiens, UniProt P15056, V600E).
T4 construct: endogenous C-terminal HiBiT fusion tag on BRAF V600E allele; endogenous in cells; host or cells: A375 clone 1F10 (CRISPR-Cas9 knock-in of the HiBiT tag; parental A375 from ATCC)
Briefly: BRAF HiBiT degradation assay, C-terminal HiBiT-tagged BRAF V600E A375 cells (clone 1F10), Nano-Glo HiBiT Lytic assay. To be noted: for Dmax: A-375. The method in brief: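 Using CRISPR-engineered A375 cells that carry a C-terminal HiBiT tag on endogenous BRAF V600E, remaining protein was quantified by lytic luminescence relative to DMSO-treated cells, with wildtype A375 as the background control. DC50 denotes the concentration giving 50% degradation.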

Setting [1] is: BRAF D594G, DC50 at 50%: fitted conc. at Y=50.
[2] abbreviates: HCT-116, BRAF D594G, percentage protein degraded at maximal compound effect relative to DMSO.
Where [3] appears, read: BRAF G466V, DC50 at 50%: fitted conc. at Y=50.
Setting [4] is: HCT-116, BRAF G466V, percentage protein degraded at maximal compound effect relative to DMSO.
The mark [5] stands for this setting: Class 2, BRAF G469A, DC50 at 50%: fitted conc. at Y=50.
The mark [6] stands for this setting: HCT-116, Class 2, BRAF G469A, percentage protein degraded at maximal compound effect relative to DMSO.
The mark [7] stands for this setting: A375 (BRAF V600E), DC50 at 50%: fitted conc. at Y=50.
Where [8] appears, read: A375 (BRAF V600E), percentage protein degraded at maximal compound effect relative to DMSO.
Where [9] appears, read: BRAF D594G (Class 3), HCT-116 BRAF−/− cells, DC50 at 50% degradation.
The mark [10] stands for this setting: BRAF D594G (Class 3), HCT-116 BRAF−/− cells, observed Dmax relative to DMSO control.
The mark [11] stands for this setting: BRAF G466V (Class 3), HCT-116 BRAF−/− cells, DC50 at 50% degradation.
[12] abbreviates: BRAF G466V (Class 3), HCT-116 BRAF−/− cells, observed Dmax relative to DMSO control.
Setting [13] is: BRAF G469A (Class 2), HCT-116 BRAF−/− cells, DC50 at 50% degradation.
Where [14] appears, read: BRAF G469A (Class 2), HCT-116 BRAF−/− cells, observed Dmax relative to DMSO control.
[15] abbreviates: A375 (BRAF V600E, Class 1), DC50 at 50% degradation.
The mark [16] stands for this setting: A375 (BRAF V600E, Class 1), observed Dmax, % protein degraded relative to DMSO control.

T1 sequence (P15056 whole entry D594G): as the sequence (P15056 whole entry G466V) above, with V466G, D594G counted along it
T4 sequence (P15056 whole entry V600E, the tested form may be a part): as the sequence (P15056 whole entry G466V) above, with V466G, V600E counted along it

On to `CCCS(=O)(=O)Nc1cccc(-c2nc(C(C)(C)C)sc2-c2ccnc(NC3CC4(C3)CN(CC3CCN(c5ccc(C(=O)NC6CCC(=O)NC6=O)cc5)CC3)C4)n2)c1F` (racemic) [Compound 170, Rac-4-[4-({6-[(4-{2-tert-butyl-4-[2-fluoro-3-(propane-1-sulfonamido)phenyl]-1,3-thiazol-5-yl}pyrimidin-2-yl)amino]-2-azaspiro[3.3]heptan-2-yl}methyl)piperidin-1-yl]-N-[(3R)-2,6-dioxopiperidin-3-yl]benzamide], for which the DC50 on BRAF D594G (setting [1]) was over 500 nM; on BRAF G466V (setting [3]), over 500 nM; at BRAF G469A (setting [5]), over 500 nM; at BRAF V600E (setting [7]), 50 to 500 nM. Further, the Dmax at BRAF D594G (setting [2]) was under 30%; at BRAF G466V (setting [4]), under 30%; on BRAF G469A (setting [6]), under 30%; at BRAF V600E (setting [8]), 30 to 70%.
For the compound `CCCS(=O)(=O)Nc1cccc(-c2nc(C(C)(C)C)sc2-c2ccnc(NC3CC4(C3)CN(C(=O)C3(F)CCN(CC5CCN(c6ccc(C7CCC(=O)NC7=O)cc6)CC5)CC3)C4)n2)c1F` (racemic) [Compound 141, Rac-N-[3-(2-tert-butyl-5-{2-[(2-{1-[(1-{4-[(3R)-2,6-dioxopiperidin-3-yl]phenyl}piperidin-4-yl)methyl]-4-fluoropiperidine-4-carbonyl}-2-azaspiro[3.3]heptan-6-yl)amino]pyrimidin-4-yl}-1,3-thiazol-4-yl)-2-fluorophenyl]propane-1-sulfonamide], the 50% degradation concentration (DC50) is over 500 nM at BRAF D594G (setting [1]), over 500 nM on BRAF G466V (setting [3]), over 500 nM on BRAF G469A (setting [5]) and 10 to 50 nM on BRAF V600E (setting [7]). Besides, the Dmax at BRAF D594G (setting [2]) is under 30%; at BRAF G466V (setting [4]), under 30%; at BRAF G469A (setting [6]), under 30%; on BRAF V600E (setting [8]), over 70%.
Turning to `CCN(C)S(=O)(=O)Nc1cccc(-c2nc(C(C)(C)C)sc2-c2ccnc(Nc3ccc(N4CCN(CC5CC6(C5)CN(c5ccc(C7CCC(=O)NC7=O)cn5)C6)CC4)cn3)n2)c1F` (racemic) [Compound 30, Rac-(3R)-3-{6-[6-({4-[6-({4-[2-tert-butyl-4-(3-{[ethyl(methyl)sulfamoyl]amino}-2-fluorophenyl)-1,3-thiazol-5-yl]pyrimidin-2-yl}amino)pyridin-3-yl]piperazin-1-yl}methyl)-2-azaspiro[3.3]heptan-2-yl]pyridin-3-yl}piperidine-2,6-dione], the half-maximal degradation concentration (DC50) on BRAF D594G (setting [1]) is under 10 nM; at BRAF G466V (setting [3]), 10 to 50 nM; at BRAF G469A (setting [5]) it was 10 to 50 nM; at BRAF V600E (setting [7]), under 10 nM. The Dmax was 30 to 70% at BRAF D594G (setting [2]), 30 to 70% on BRAF G466V (setting [4]), 30 to 70% on BRAF G469A (setting [6]) and over 70% on BRAF V600E (setting [8]).
For the compound `O=C1CCC(c2ccc(N3CCC(CN4CCN(c5ccc(-n6cc(-c7cc(Cl)cc(NS(=O)(=O)C8CCCC8)c7F)c(-c7ccncc7)n6)cc5)CC4)CC3)nc2)C(=O)N1` (racemic) [Compound 373, Rac-N-{5-chloro-3-[1-(4-{4-[(1-{5-[(3R)-2,6-dioxopiperidin-3-yl]pyridin-2-yl}piperidin-4-yl)methyl]piperazin-1-yl}phenyl)-3-(pyridin-4-yl)-1H-pyrazol-4-yl]-2-fluorophenyl}cyclopentanesulfonamide], the DC50 on BRAF D594G (setting [9]) was under 10 nM; at BRAF G466V (setting [11]), under 10 nM; on BRAF G469A (setting [13]), 10 to 50 nM; at BRAF V600E (setting [15]), under 10 nM. The Dmax at BRAF D594G (setting [10]), on BRAF G466V (setting [12]), at BRAF G469A (setting [14]) and at BRAF V600E (setting [16]) was over 70% each time.
Take `CCCS(=O)(=O)Nc1cccc(-c2nc(C(C)(C)C)sc2-c2ccnc(Nc3ccc(N4CCN(C(=O)CC5CCN(c6ccc(NC7CCC(=O)NC7=O)cc6)CC5)CC4)c(F)c3)n2)c1F` (racemic) [Compound 46, Rac-N-{3-[2-tert-butyl-5-(2-{[4-(4-{2-[1-(4-{[(3R)-2,6-dioxopiperidin-3-yl]amino}phenyl)piperidin-4-yl]acetyl}piperazin-1-yl)-3-fluorophenyl]amino}pyrimidin-4-yl)-1,3-thiazol-4-yl]-2-fluorophenyl}propane-1-sulfonamide]: the DC50 at BRAF D594G (setting [1]) is 50 to 500 nM; at BRAF G466V (setting [3]) it was under 10 nM; on BRAF G469A (setting [5]), over 500 nM; at BRAF V600E (setting [7]), under 10 nM. The Dmax is 30 to 70% on BRAF D594G (setting [2]), 30 to 70% at BRAF G466V (setting [4]), 30 to 70% at BRAF G469A (setting [6]) and over 70% on BRAF V600E (setting [8]).
For the compound `CCCS(=O)(=O)Nc1cccc(-c2nc(C3CCN(C(=O)C4(C)CCN(C(=O)CC5CCN(c6ccc(C7CCC(=O)NC7=O)cn6)CC5)CC4)CC3)sc2-c2ccnc(N)n2)c1F` (racemic) [Compound 194, Rac-N-{3-[5-(2-aminopyrimidin-4-yl)-2-(1-{1-[2-(1-{5-[(3R)-2,6-dioxopiperidin-3-yl]pyridin-2-yl}piperidin-4-yl)acetyl]-4-methylpiperidine-4-carbonyl}piperidin-4-yl)-1,3-thiazol-4-yl]-2-fluorophenyl}propane-1-sulfonamide], the DC50 at BRAF D594G (setting [1]) was over 500 nM; at BRAF G466V (setting [3]), over 500 nM; at BRAF G469A (setting [5]), over 500 nM; on BRAF V600E (setting [7]) it was under 10 nM. For the same compound, the Dmax is 30 to 70% at BRAF D594G (setting [2]), 30 to 70% at BRAF G466V (setting [4]), under 30% on BRAF G469A (setting [6]) and over 70% on BRAF V600E (setting [8]).
As for `CCN(C)S(=O)(=O)Nc1cc(Cl)cc(-c2cn(-c3ccc(N4CCN(CC5CCN(c6ccc([C@H]7CCC(=O)NC7=O)cc6)CC5)CC4)cn3)nc2-c2ccncc2)c1F` [Compound 310, (3R)-3-(4-{4-[(4-{6-[4-(5-chloro-3-{[ethyl(methyl)sulfamoyl]amino}-2-fluorophenyl)-3-(pyridin-4-yl)-1H-pyrazol-1-yl]pyridin-3-yl}piperazin-1-yl)methyl]piperidin-1-yl}phenyl)piperidine-2,6-dione], the DC50 at BRAF D594G (setting [9]) was under 10 nM; at BRAF G466V (setting [11]) it was 10 to 50 nM; on BRAF G469A (setting [13]), 10 to 50 nM; at BRAF V600E (setting [15]), under 10 nM. The Dmax at BRAF D594G (setting [10]) was over 70%; on BRAF G466V (setting [12]), over 70%; at BRAF G469A (setting [14]), 30 to 70%; at BRAF V600E (setting [16]) it was over 70%.
Take `C[C@@H]1CN(c2ccc(-n3cc(-c4cc(Cl)cc(NS(=O)(=O)N5CC[C@@H](F)C5)c4F)c(-c4ccncc4)n3)nc2)CCN1CC1CCN(c2ccc(N3CCC(=O)NC3=O)cc2)CC1` [Compound 322, (3R)—N-[5-chloro-3-(1-{5-[(3R)-4-({1-[4-(2,4-dioxo-1,3-diazinan-1-yl)phenyl]piperidin-4-yl}methyl)-3-methylpiperazin-1-yl]pyridin-2-yl}-3-(pyridin-4-yl)-1H-pyrazol-4-yl)-2-fluorophenyl]-3-fluoropyrrolidine-1-sulfonamide]: the DC50 was under 10 nM on BRAF D594G (setting [9]), under 10 nM at BRAF G466V (setting [11]), 50 to 500 nM on BRAF G469A (setting [13]) and under 10 nM at BRAF V600E (setting [15]). The Dmax is 30 to 70% at BRAF D594G (setting [10]), 30 to 70% at BRAF G466V (setting [12]), 30 to 70% on BRAF G469A (setting [14]) and over 70% at BRAF V600E (setting [16]).
Take `CCN(C)S(=O)(=O)Nc1cccc(-c2nc(C)sc2-c2ccnc(Nc3ccc(N4CCN(CC5(F)CCN(c6ccc(C7CCC(=O)NC7=O)cc6)CC5)CC4)cn3)n2)c1F` (racemic) [Compound 33, Rac-(3S)-3-{4-[4-({4-[6-({4-[4-(3-{[ethyl(methyl)sulfamoyl]amino}-2-fluorophenyl)-2-methyl-1,3-thiazol-5-yl]pyrimidin-2-yl}amino)pyridin-3-yl]piperazin-1-yl}methyl)-4-fluoropiperidin-1-yl]phenyl}piperidine-2,6-dione]: the DC50 at BRAF D594G (setting [1]) is 10 to 50 nM; on BRAF G466V (setting [3]), under 10 nM; on BRAF G469A (setting [5]), under 10 nM; at BRAF V600E (setting [7]), 10 to 50 nM. Also, the Dmax at BRAF D594G (setting [2]) was 30 to 70%; on BRAF G466V (setting [4]) it was 30 to 70%; on BRAF G469A (setting [6]), 30 to 70%; at BRAF V600E (setting [8]), over 70%.
